Results on four compounds are retold here after patent publication US20210228530A1, “TAXANE-LIPID-POLYSACCHARIDE DUAL CONJUGATES, PREPARATION METHODS THEREOF AND USES THEREOF” (Santolecan Pharmaceuticals LLC, priority 2018, published 2021).

≈ marks a conversion by molar mass, not a printed value.

For one data set, the system named is NCI-H460 tumor cells. The data set is described as follows: In vitro antitumor activity, MTT assay, NCI-H460. Format: cell-based. As to conditions: Homo sapiens, 72 h treatment, conjugates in taxane molar equivalents. As for the experimental part: (§1) In order to determine if the activity of the prepared intermediates and prepared conjugates, we evaluated their antitumor activities by using MTT assay.
(§2) All cell lines were maintained in a humidified atmosphere containing 5% CO2 at 37° C. in different media supplemented with 10% FBS, 100 U/ml penicillin, and 100 μg/ml streptomycin. MCF-7, NCI-H460 or OVCAR-3 tumor cells were seeded into a 96-well cell culture plate and incubated overnight. The 96-well culture plate was taken out from the incubator, and the conjugates or mixture of different compounds or polysaccharides were added into it. […] Three wells were set at each concentration. Blank control contained tumor cells in normal medium without any sample. After treatment for 72 h, 20 μL of 3-(4, 5-dimethylthiazole-2)-2,5-diphenyltetrazolium bromide (MTT) were added to each well and incubated for 4 hours at 37° C. […] The half-inhibitory concentration (IC50 value) of each compound or conjugate was calculated.

The subject of the next data set is MCF-7 tumor cells. The data set is described as follows: In vitro antitumor activity, MTT assay, MCF-7. In kind it is cell-based. The following applies: Homo sapiens, MCF7, 72 h treatment, conjugates in taxane molar equivalents. As for the experimental part: as §1, §2
Data set [1] has as its system metastatic malignant melanoma cancer. The following applies: patients with metastatic malignant melanoma cancer; Ann. Oncol., 2011; cited from earlier work.
The conditions of data set [2]: literature report, drugbank.ca; cited from earlier work.
The nature of data set [3]: In vivo safety assay in xenograft nude mice: body weight and death. On the set-up: species or system BALB/c (nu/nu) mice. The following applies: whole experiment period; 8.0 mg/kg docetaxel or equimolar dose, i.v. once a week, 4 weeks. As for the experimental part:
BALB/c (nu/nu) mice (20±2 g, 4-6 weeks old) were housed under pathogen-free conditions. Cancer cells such MCF-7 and NCI-H460 5.0×10^6, suspended in 100 μl PBS, were subcutaneously inoculated into the lower right rank of the nude mice. When the tumor size reached 100-150 mm^3, the mice were divided randomly into different groups (n=6 in each group). The control group received the solvent only. […] The mice were treated for 4 weeks. After the administration, the mice are raised normally. The tumor volume and mouse body weight were measured on every 3 days.

A short description of data set [4]: Enhanced solubility test for poorly water-soluble compounds. Format: physicochemical. The following applies: 1.0 mg alone in 2.0 ml distilled water, sonicated for 1 minute.
Data set [5] has as its system OVCAR-3 (drug resistance) tumor cells. The data set is described as follows: In vitro antitumor activity, MTT assay, OVCAR-3. Format: cell-based. The following applies: Homo sapiens, 72 h, taxane molar equivalents, molar ratio of taxane to lipid (Paclitaxel:DHA) 1:0, 1:1, 1:2, 1:4 per row. As for the experimental part:
as §1
All cell lines were maintained in a humidified atmosphere containing 5% CO2 at 37° C. in different media supplemented with 10% FBS, 100 U/ml penicillin, and 100 μg/ml streptomycin. MCF-7, NCI-H460 or OVCAR-3 tumor cells were seeded into a 96-well cell culture plate and incubated overnight. The 96-well culture plate was taken out from the incubator, and the conjugates or mixture of different compounds or polysaccharides were added into it. The concentration of each compound or conjugate were set to 500 nM, 200 nM, 100 nM, 50 nM, 25 nM, 12.5 nM, 6 nM, 3 nM and 1 nM. Three wells were set at each concentration. Blank control contained tumor cells in normal medium without any sample. After treatment for 72 h, 20 μL of 3-(4, 5-dimethylthiazole-2)-2,5-diphenyltetrazolium bromide (MTT) were added to each well and incubated for 4 hours at 37° C. After the removal of the supernatant, MTT formazan was dissolved in 150 μl dimethyl sulfoxide (DMSO) and monitored using a microplate reader at a wavelength of 570 nm. The half-inhibitory concentration (IC50 value) of each compound or conjugate was calculated.

On to `CO[C@H]1C(=O)[C@]2(C)[C@@H](OC)C[C@H]3OC[C@@]3(OC(C)=O)[C@H]2[C@H](OC(=O)c2ccccc2)[C@]2(O)C[C@H](OC(=O)[C@H](O)[C@@H](NC(=O)OC(C)(C)C)c3ccccc3)C(C)=C1C2(C)C` [Cabazitaxel, cabazitaxel], for which the IC50 in the data set with NCI-H460 tumor cells was 7.1 ± 0.3 nM; in the data set with MCF-7 tumor cells, 8.3 ± 0.5 nM.
Turning to `CC/C=C\C/C=C\C/C=C\C/C=C\C/C=C\C/C=C/CCC(=O)O[C@@H](C(=O)O[C@H]1C[C@@]2(O)[C@@H](OC(=O)c3ccccc3)C3[C@](C)(C(=O)[C@H](OC(C)=O)C(=C1C)C2(C)C)[C@@H](O)C[C@H]1OC[C@@]31OC(C)=O)[C@@H](NC(=O)c1ccccc1)c1ccccc1` (stereo partly drawn) [DHA-paclitaxel], the “final survival rates versus dacarbazine group” value in data set [1] is “no significant differences in final survival rates”.
Take `CC(=O)O[C@@]12CO[C@@H]1C[C@H](O)[C@@]1(C)C(=O)[C@H](O)C3=C(C)[C@@H](OC(=O)[C@H](O)[C@@H](NC(=O)OC(C)(C)C)c4ccccc4)C[C@@](O)([C@@H](OC(=O)c4ccccc4)[C@H]21)C3(C)C` [Docetaxel, docetaxel]: the figures for the IC50 in the data set on NCI-H460 tumor cells and with MCF-7 tumor cells were 6.7 ± 0.6 nM and 9.5 ± 0.2 nM, respectively. Moreover, the “solubility in water (literature)” value in data set [2] was 1.27 µg/mL (≈ 1.57 µM). Moreover, in data set [3], the “death of nude mice” value is “no death”. Further, the “observation of the compound alone in water” value in data set [4] is recorded as “undissolved powder floated over water surface was clearly observed”.
Consider `CC(=O)O[C@H]1C(=O)[C@@]2(C)[C@H]([C@H](OC(=O)c3ccccc3)[C@]3(O)C[C@H](OC(=O)[C@H](O)[C@@H](NC(=O)c4ccccc4)c4ccccc4)C(C)=C1C3(C)C)[C@]1(OC(C)=O)CO[C@@H]1C[C@@H]2O` [Paclitaxel, paclitaxel], for which the IC50 in the data set with NCI-H460 tumor cells was determined as 17.9 ± 1.3 nM; in data set [5], 57.6 ± 6.3 nM; in the data set with MCF-7 tumor cells it was 21.9 ± 1.1 nM. For the same compound, in data set [4], the “observation of the compound alone in water” value is on record as “undissolved powder floated over water surface was clearly observed”.
